Assay results from the supplement of paper PMC10307832.

Legend:
Assay in all cases: relative viability (nuclei count vs DMSO), 5 days (fraction); higher = more cells survive
CAL-12T = tested on: CAL-12T
Method in brief: (§1)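 Relative viability was taken as the ratio of nuclei in treated wells to nuclei in vehicle wells. Lung cancer cell lines in 1536-well plates received compounds by pin tool one day after seeding, either one drug alone or a fixed anchor-drug dose plus five library-drug doses (not always all listed) in √10 steps. Nuclei were counted on 4× images after 5 days of treatment, and values are medians of duplicate plates.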

COR-L 105 = tested on: COR-L 105
Method in brief: as §1

H3255 = tested on: H3255
Method in brief: as §1

HARA = tested on: HARA
Method in brief: as §1

HCC-15 = tested on: HCC-15
Method in brief: as §1

HCC-366 = tested on: HCC-366
Method in brief: as §1

LC-2-ad = tested on: LC-2-ad
Method in brief: as §1

LU99A = tested on: LU99A
Method in brief: as §1

NCI-H1563 = tested on: NCI-H1563
Method in brief: as §1

NCI-H1666 = tested on: NCI-H1666
Method in brief: as §1

NCI-H1734 = tested on: NCI-H1734
Method in brief: as §1

NCI-H1975 = tested on: NCI-H1975
Method in brief: as §1

NCI-H1993 = tested on: NCI-H1993
Method in brief: as §1

NCI-H3122 = tested on: NCI-H3122
Method in brief: as §1

NCI-H647 = tested on: NCI-H647
Method in brief: as §1

NCI-H838 = tested on: NCI-H838
Method in brief: as §1

PC-14 = tested on: PC-14
Method in brief: as §1

PC-3 [JPC-3] = tested on: PC-3 [JPC-3]
Method in brief: as §1

SK-LU-1 = tested on: SK-LU-1
Method in brief: as §1

Q: What does the source list for COCC1(CO)C(=O)C2CCN1CC2 (configuration not stated) [PRIMA-1MET] + CC(C)C[C@H](NC(=O)[C@H](Cc1ccccc1)NC(=O)c1cnccn1)B(O)O [Bortezomib] (partner 0.002 µM)?
A: relative viability (CAL-12T; first compound 0.2 µM): 0.862; relative viability (CAL-12T; first compound 0.6325 µM): 0.947; relative viability (CAL-12T; first compound 2 µM): 1.15; relative viability (CAL-12T; first compound 6.325 µM): 0.946; relative viability (CAL-12T; first compound 20 µM): 0.245; relative viability (COR-L 105; first compound 0.2 µM): 1.12; relative viability (COR-L 105; first compound 0.6325 µM): 0.588; relative viability (COR-L 105; first compound 2 µM): 0.544; relative viability (COR-L 105; first compound 6.325 µM): 0.715; relative viability (COR-L 105; first compound 20 µM): 0.163; relative viability (H3255; first compound 0.2 µM): 0.814; relative viability (H3255; first compound 0.6325 µM): 0.461; relative viability (H3255; first compound 2 µM): 0.771; relative viability (H3255; first compound 6.325 µM): 0.815; relative viability (H3255; first compound 20 µM): 0.69; relative viability (HARA; first compound 0.2 µM): 1.24; relative viability (HARA; first compound 0.6325 µM): 0.704; relative viability (HARA; first compound 6.325 µM): 1.07; relative viability (HARA; first compound 20 µM): 1.14; relative viability (HCC-15; first compound 0.2 µM): 1.02; relative viability (HCC-15; first compound 0.6325 µM): 0.902; relative viability (HCC-15; first compound 2 µM): 1.12; relative viability (HCC-15; first compound 6.325 µM): 0.988; relative viability (HCC-15; first compound 20 µM): 0.583; relative viability (HCC-366; first compound 0.2 µM): 1.15; relative viability (HCC-366; first compound 0.6325 µM): 0.838; relative viability (HCC-366; first compound 6.325 µM): 1.01; relative viability (HCC-366; first compound 20 µM): 0.0138; relative viability (LC-2-ad; first compound 0.2 µM): 1.11; relative viability (LC-2-ad; first compound 0.6325 µM): 0.981; relative viability (LC-2-ad; first compound 2 µM): 0.695; relative viability (LC-2-ad; first compound 6.325 µM): 1.07; relative viability (LC-2-ad; first compound 20 µM): 0.91; relative viability (LU99A; first compound 0.2 µM): 1.09; relative viability (LU99A; first compound 0.6325 µM): 0.957; relative viability (LU99A; first compound 2 µM): 1.15; relative viability (LU99A; first compound 6.325 µM): 0.892; relative viability (LU99A; first compound 20 µM): 0.103; relative viability (NCI-H1563; first compound 0.2 µM): 0.945; relative viability (NCI-H1563; first compound 0.6325 µM): 0.822; relative viability (NCI-H1563; first compound 2 µM): 0.635; relative viability (NCI-H1563; first compound 6.325 µM): 1.15; relative viability (NCI-H1563; first compound 20 µM): 0.386; relative viability (NCI-H1666; first compound 0.2 µM): 0.836; relative viability (NCI-H1666; first compound 0.6325 µM): 0.777; relative viability (NCI-H1666; first compound 2 µM): 0.816; relative viability (NCI-H1666; first compound 6.325 µM): 0.983; relative viability (NCI-H1666; first compound 20 µM): 0.305; relative viability (NCI-H1734; first compound 0.2 µM): 1.16; relative viability (NCI-H1734; first compound 0.6325 µM): 0.75; relative viability (NCI-H1734; first compound 2 µM): 0.812; relative viability (NCI-H1734; first compound 6.325 µM): 0.967; relative viability (NCI-H1734; first compound 20 µM): 0.224; relative viability (NCI-H1975; first compound 0.2 µM): 0.457; relative viability (NCI-H1975; first compound 0.6325 µM): 0.408; relative viability (NCI-H1975; first compound 2 µM): 0.399; relative viability (NCI-H1975; first compound 6.325 µM): 0.4; relative viability (NCI-H1975; first compound 20 µM): 0.419; relative viability (NCI-H1993; first compound 0.2 µM): 1.21; relative viability (NCI-H1993; first compound 0.6325 µM): 1.07; relative viability (NCI-H1993; first compound 2 µM): 1.94; relative viability (NCI-H1993; first compound 6.325 µM): 1.02; relative viability (NCI-H1993; first compound 20 µM): 1.24; relative viability (NCI-H3122; first compound 0.2 µM): 0.865; relative viability (NCI-H3122; first compound 0.6325 µM): 1.01; relative viability (NCI-H3122; first compound 2 µM): 0.955; relative viability (NCI-H3122; first compound 6.325 µM): 0.986; relative viability (NCI-H3122; first compound 20 µM): 0.999; relative viability (NCI-H647; first compound 0.2 µM): 1.19; relative viability (NCI-H647; first compound 0.6325 µM): 1.06; relative viability (NCI-H647; first compound 2 µM): 0.876; relative viability (NCI-H647; first compound 6.325 µM): 1.17; relative viability (NCI-H647; first compound 20 µM): 0.686; relative viability (NCI-H838; first compound 0.2 µM): 0.9; relative viability (NCI-H838; first compound 0.6325 µM): 0.652; relative viability (NCI-H838; first compound 2 µM): 0.745; relative viability (NCI-H838; first compound 6.325 µM): 0.978; relative viability (NCI-H838; first compound 20 µM): 0.263; relative viability (PC-14; first compound 0.2 µM): 0.98; relative viability (PC-14; first compound 0.6325 µM): 0.722; relative viability (PC-14; first compound 2 µM): 0.856; relative viability (PC-14; first compound 6.325 µM): 1.08; relative viability (PC-14; first compound 20 µM): 0.884; relative viability (PC-3 [JPC-3]; first compound 0.2 µM): 0.958; relative viability (PC-3 [JPC-3]; first compound 0.6325 µM): 0.688; relative viability (PC-3 [JPC-3]; first compound 2 µM): 0.874; relative viability (PC-3 [JPC-3]; first compound 6.325 µM): 0.858; relative viability (PC-3 [JPC-3]; first compound 20 µM): 0.792; relative viability (SK-LU-1; first compound 0.2 µM): 1.42; relative viability (SK-LU-1; first compound 0.6325 µM): 1.07; relative viability (SK-LU-1; first compound 6.325 µM): 1.2; relative viability (SK-LU-1; first compound 20 µM): 0.617
